{"source": "paper PMC10607100", "about": "“Anticancer and Antiphytopathogenic Activity of Fluorinated Isatins and Their Water-Soluble Hydrazone Derivatives” (International Journal of Molecular Sciences, 2023)", "assay_type_in_all_cases": "cell-based", "key": {"[1]": {"test_system": "Pseudomonas fluorescens EL-2.1", "experiment": "Agar-well diffusion, bactericidal activity", "conditions": "Pseudomonas fluorescens, EL2.1; 2 mM/L; average of 3 experiments; read-out: width of the inhibition zone (mm), Ps. fluorescens", "method_in_brief": "(§1)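 Bacteria spread on agar (BP medium; GYCa for X. campestris; pH 7.2–7.4) with 6-mm wells, each receiving 150 μL compound solution. Cultures grown at 28 °C; growth-inhibition zone width measured after 36–40 h.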"}, "[2]": {"test_system": "Pectobacterium carotovorum subsp. carotovorum MI", "experiment": "Agar-well diffusion, bactericidal activity", "conditions": "Pectobacterium carotovorum, 2 mM/L", "method_in_brief": "as §1"}, "Micrococcus luteus B-109": {"test_system": "Micrococcus luteus B-109", "experiment": "Agar-well diffusion, bactericidal activity", "conditions": "Micrococcus luteus", "method_in_brief": "as §1"}, "[3]": {"test_system": "Pectobacterium atrosepticum 1043", "experiment": "Agar-well diffusion, bactericidal activity", "conditions": "Pectobacterium atrosepticum, 1043; 2 mM/L; average of 3 experiments; read-out: width of the inhibition zone (mm), P. atrosepticum", "method_in_brief": "as §1"}, "[4]": {"test_system": "Xanthomonas campestris B-610", "experiment": "Agar-well diffusion, bactericidal activity", "conditions": "Xanthomonas campestris", "method_in_brief": "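Agar-well diffusion on GYCa agar (pH 7.2–7.4) seeded with bacterial suspension; 150 μL compound solution placed in 6-mm wells. Inhibition zone width measured after 36–40 h incubation.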"}, "[5]": {"test_system": "Phytophthora cactorum VKM F-985", "experiment": "Mycelial radial growth inhibition", "conditions": "for inhibition of growth at 3 µM: 3 nmol/mL; for inhibition of growth at 3 µM / inhibition of growth at 7 µM / inhibition of growth / inhibition of growth at 40 µM: read-out: Inhibition value, I (%); for inhibition of growth at 7 µM: 7 nmol/mL; for inhibition of growth: 27 nmol/mL; for inhibition of growth at 40 µM: 40 nmol/mL", "method_in_brief": "(§2)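 Compounds mixed into molten GPY agar at various concentrations; centre inoculated with a 5-mm mycelial plug from 10-day cultures and incubated at 27 °C. Colony diameter compared with untreated control until control plate was covered (usually 12 days); ≥4 replicates in two experiments.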"}, "[6]": {"test_system": "Fusarium oxysporum IBPPM 543", "experiment": "Mycelial radial growth inhibition", "conditions": "for inhibition of growth at 1 µM: 1 nmol/mL; for inhibition of growth at 1 µM / inhibition of growth at 5 µM / inhibition of growth at 20 µM / inhibition of growth at 40 µM: read-out: Inhibition value, I (%); for inhibition of growth at 5 µM: 5 nmol/mL; for inhibition of growth at 20 µM: 20 nmol/mL; for inhibition of growth at 40 µM: 40 nmol/mL", "method_in_brief": "as §2"}, "[7]": {"test_system": "five representative phytopathogens", "experiment": "Agar-well diffusion, bactericidal activity over the panel of phytopathogens", "conditions": "36 h, 2 mM solutions; dependent on the test system used; read-out: inhibition zone width (mm), range over the test systems", "description": "Plant pathogenic bacterial strains Micrococcus luteus B-109, Pectobacterium atrosepticum 1043, Pectobacterium carotovorum subsp. carotovorum MI, Pseudomonas fluorescens EL-2.1, and Xanthomonas campestris B-610 and the fungal strain Fusarium oxysporum IBPPM 543 were from the Collection of Rhizosphere Microorganisms, IBPPM RAS (WFCC no. 975, WDCM no. 1021) (CM IBPPM, http://collection.ibppm.ru). The pathogenic fungus Phytophthora cactorum VKM F-985, provided by the All-Russian Collection of Microorganisms (VKM) and deposited at the A.E. Favorsky Irkutsk Institute of Chemistry, SB RAS, was also used as a test organism. Bacteria M. luteus, P. carotovorum subsp. carotovorum, P. atrosepticum, and P. fluorescens were grown in a meat–peptone medium (BP), and X. campestris was grown in the medium with glucose, yeast extract, and calcium carbonate (GYCa). Solid media contained Bacto agar (18 g/L); pH was adjusted to 7.2–7.4. All bacterial cultures were grown at 28 °C. The mycelial cultures of F. oxysporum and P. cactorum were grown on a glucose–peptone–yeast (GPY) nutrient medium at 27 °C. For inoculum preparation, both fungal strains were initially grown on the agar GPY in Petri dishes and then transferred into the seed medium by punching out 5 mm of the agar plate culture with a self-designed cutter.\nThe antibacterial and antifungal activities of the compounds were explored using the agar-well diffusion method and the technique of mycelial radial growth inhibition. The method of diffusion in agar (measuring the diameter of growth inhibition zones) was used to determine the bactericidal activity. The 6-mm wells were made in agar medium (GYCa for Xanthomonas campestris or BP for other bacteria). Bacterial suspensions were distributed over the agar surface, and the tested compound’s solution (150 μL) was added to each well. The width of growth inhibition zones around the wells was determined after incubation for 36–40 h."}, "[8]": {"conditions": "Phytophthora cactorum, 72 h, age of the fungus 3 days"}, "[9]": {"conditions": "Phytophthora cactorum, 120 h, age of the fungus 5 days"}, "[10]": {"conditions": "Phytophthora cactorum, 168 h, age of the fungus 7 days"}, "[11]": {"conditions": "Phytophthora cactorum, 216 h, age of the fungus 9 days"}, "[12]": {"conditions": "Fusarium oxysporum, IBPPM543, 72 h, age of the fungus 3 days"}, "[13]": {"conditions": "Fusarium oxysporum, IBPPM543, 120 h, age of the fungus 5 days"}, "[14]": {"conditions": "Fusarium oxysporum, IBPPM543, 168 h, age of the fungus 7 days"}, "[15]": {"conditions": "Fusarium oxysporum, IBPPM543, 216 h, age of the fungus 9 days"}}, "note": "Where two headings read alike, the source gives them in different places.", "data": [{"smiles": "Cc1ccc[n+](CC(=O)N/N=C2\\C(=O)N(Cc3c(F)cccc3Cl)c3ccccc32)c1C", "note": "[Compound 7b]", "values": [{"measurement": "zone of inhibition at 2000 µM", "setting": "[1]", "result": 4.5, "unit": "mm"}, {"measurement": "zone of inhibition at 2000 µM", "setting": "[2]; average of 3 experiments, read-out: width of the inhibition zone (mm), P. carotovorum subsp. carotovorum", "result": 5, "unit": "mm"}, {"measurement": "zone of inhibition at 2000 µM", "setting": "[2]; Table S3, read-out: Inhibition zone width (mm), not less", "result": "≥ 5", "unit": "mm"}, {"measurement": "zone of inhibition at 2000 µM", "setting": "Micrococcus luteus B-109; B109, 2 mM/L, average of 3 experiments, read-out: width of the inhibition zone (mm), M. luteus", "result": 7, "unit": "mm"}, {"measurement": "zone of inhibition at 2000 µM", "setting": "Micrococcus luteus B-109; B109, Table S3, 2 mM/L, read-out: Inhibition zone width (mm), not less", "result": "≥ 7", "unit": "mm"}, {"measurement": "zone of inhibition at 2000 µM", "setting": "[3]", "result": 4, "unit": "mm"}, {"measurement": "zone of inhibition at 2000 µM", "setting": "[4]; B610, 2 mM/L, average of 3 experiments, read-out: width of the inhibition zone (mm), X. campestris", "result": 7, "unit": "mm"}, {"measurement": "zone of inhibition at 2000 µM", "setting": "[4]; B610, Table S3, 2 mM/L, read-out: Inhibition zone width (mm), not less", "result": "≥ 7", "unit": "mm"}, {"measurement": "antagonistic effect superior to that of N-cetylpyridinium chloride", "setting": "[5]; 5 days of growth", "result": 1.3, "unit": "times"}, {"measurement": "antagonistic effect superior to that of fludioxonil", "setting": "[5]; 5 days of growth", "result": 1.1, "unit": "times"}, {"measurement": "inhibition of growth at 3 µM", "setting": "[5]; [8]", "result": 15, "unit": "%"}, {"measurement": "inhibition of growth at 7 µM", "setting": "[5]; [8]", "result": 25, "unit": "%"}, {"measurement": "inhibition of growth", "setting": "[5]; [8]", "result": 30, "unit": "%"}, {"measurement": "inhibition of growth at 40 µM", "setting": "[5]; [8]", "result": 39, "unit": "%"}, {"measurement": "EC50", "setting": "[5]; Phytophthora cactorum, 120 h, day 5, read-out: EC50, µg/mL at Day 5, P. cactorum", "result": "≤ 28", "unit": "µg/mL"}, {"measurement": "inhibition of growth at 3 µM", "setting": "[5]; [9]", "result": 12, "unit": "%"}, {"measurement": "inhibition of growth at 7 µM", "setting": "[5]; [9]", "result": 25, "unit": "%"}, {"measurement": "inhibition of growth", "setting": "[5]; [9]", "result": 32, "unit": "%"}, {"measurement": "inhibition of growth at 40 µM", "setting": "[5]; [9]", "result": 40, "unit": "%"}, {"measurement": "inhibition of growth at 3 µM", "setting": "[5]; [10]", "result": 9, "unit": "%"}, {"measurement": "inhibition of growth at 7 µM", "setting": "[5]; [10]", "result": 22, "unit": "%"}, {"measurement": "inhibition of growth", "setting": "[5]; [10]", "result": 28, "unit": "%"}, {"measurement": "inhibition of growth at 40 µM", "setting": "[5]; [10]", "result": 37, "unit": "%"}, {"measurement": "inhibition of growth at 3 µM", "setting": "[5]; [11]", "result": 7, "unit": "%"}, {"measurement": "inhibition of growth at 7 µM", "setting": "[5]; [11]", "result": 16, "unit": "%"}, {"measurement": "inhibition of growth", "setting": "[5]; [11]", "result": 21, "unit": "%"}, {"measurement": "inhibition of growth at 40 µM", "setting": "[5]; [11]", "result": 35, "unit": "%"}, {"measurement": "inhibition of growth at 1 µM", "setting": "[6]; [12]", "result": 13, "unit": "%"}, {"measurement": "inhibition of growth at 5 µM", "setting": "[6]; [12]", "result": 32, "unit": "%"}, {"measurement": "inhibition of growth at 20 µM", "setting": "[6]; [12]", "result": 35, "unit": "%"}, {"measurement": "inhibition of growth at 40 µM", "setting": "[6]; [12]", "result": 55, "unit": "%"}, {"measurement": "EC50", "setting": "[6]; Fusarium oxysporum, IBPPM543, 120 h, day 5, read-out: EC50, µg/mL at Day 5, F. oxysporum", "result": "≤ 21", "unit": "µg/mL"}, {"measurement": "inhibition of growth at 1 µM", "setting": "[6]; [13]", "result": 15, "unit": "%"}, {"measurement": "inhibition of growth at 5 µM", "setting": "[6]; [13]", "result": 29, "unit": "%"}, {"measurement": "inhibition of growth at 20 µM", "setting": "[6]; [13]", "result": 35, "unit": "%"}, {"measurement": "inhibition of growth at 40 µM", "setting": "[6]; [13]", "result": 52, "unit": "%"}, {"measurement": "inhibition of growth at 1 µM", "setting": "[6]; [14]", "result": 10, "unit": "%"}, {"measurement": "inhibition of growth at 5 µM", "setting": "[6]; [14]", "result": 20, "unit": "%"}, {"measurement": "inhibition of growth at 20 µM", "setting": "[6]; [14]", "result": 30, "unit": "%"}, {"measurement": "inhibition of growth at 40 µM", "setting": "[6]; [14]", "result": 43, "unit": "%"}, {"measurement": "inhibition of growth at 1 µM", "setting": "[6]; [15]", "result": 11, "unit": "%"}, {"measurement": "inhibition of growth at 5 µM", "setting": "[6]; [15]", "result": 13, "unit": "%"}, {"measurement": "inhibition of growth at 20 µM", "setting": "[6]; [15]", "result": 25, "unit": "%"}, {"measurement": "inhibition of growth at 40 µM", "setting": "[6]; [15]", "result": 39, "unit": "%"}, {"measurement": "fungicidal action stronger than N-cetylpyridinium chloride", "setting": "[6]; same culture age (5 days)", "result": 7.0, "unit": "times"}, {"measurement": "inhibition of Fusarium growth greater than fludioxonil", "setting": "[6]; same culture age (5 days)", "result": 4.1, "unit": "times"}, {"measurement": "zone of inhibition at 2000 µM", "setting": "[7]", "result": "4 to 7", "unit": "mm"}]}]}
